Reference: the NIST ThermoML archive (doi:10.1016/j.jct.2012.12.001)

Test: heat capacity at constant pressure per volume; xn = mol fraction of the nth substance listed
Conditions: 101 kPa, Liquid, DSC, x2 = 0.713

CCCCCCCCCCCCCCCCCC [octadecane] + N#Cc1ccccc1
Conditions	heat capacity [J/K/m3]
303.58 K	1893500
303.61 K	1895600
303.64 K	1894200
303.66 K	1894100
303.69 K	1893500
303.72 K	1893700
303.75 K	1897900
303.78 K	1897000
303.8 K	1893000
303.83 K	1895200
303.86 K	1892600
303.89 K	1900300
303.92 K	1898300
303.94 K	1898400
303.97 K	1899900
304 K	1891800
304.03 K	1897900
304.06 K	1900800
304.09 K	1899300
304.11 K	1897800
304.14 K	1899100
304.17 K	1900600
304.2 K	1897100
304.23 K	1902700
304.25 K	1900600
304.28 K	1893900
304.31 K	1900100
304.34 K	1897300
304.37 K	1899500
304.39 K	1898900
304.42 K	1904200
304.45 K	1900400
304.48 K	1895000
304.51 K	1898500
304.54 K	1903400
304.56 K	1902200
304.59 K	1903900
304.62 K	1901200
304.65 K	1901800
304.68 K	1903500
304.7 K	1904200
304.73 K	1899600
304.76 K	1899700
304.79 K	1900400
304.82 K	1904800
304.84 K	1903700
304.87 K	1904600
304.9 K	1904600
304.93 K	1903200
304.96 K	1902600
304.98 K	1900600
305.01 K	1902200
305.04 K	1902200
305.07 K	1903000
305.1 K	1907100
305.12 K	1903100
305.15 K	1908100
305.18 K	1904700
305.21 K	1904200
305.24 K	1905700
305.27 K	1907500
305.29 K	1908300
305.32 K	1908600
305.35 K	1908400
305.38 K	1906900
305.41 K	1907700
305.44 K	1908100
305.46 K	1909400
305.49 K	1908500
305.52 K	1909000
305.55 K	1908400
305.57 K	1909200
305.6 K	1906500
305.63 K	1908200
305.66 K	1908500
305.69 K	1909100
305.72 K	1909500
305.74 K	1911100
305.77 K	1910000
305.8 K	1907500
305.83 K	1908700
305.86 K	1914100
305.88 K	1911500
305.91 K	1910100
305.94 K	1909200
305.97 K	1909700
306 K	1906900
306.02 K	1909600
306.05 K	1913100
306.08 K	1913500
306.11 K	1917400
306.14 K	1917300
306.17 K	1913000
306.19 K	1914700
306.22 K	1914300
306.25 K	1915600
306.28 K	1918100
306.31 K	1915700
306.33 K	1916100
306.36 K	1913300
306.39 K	1910700
306.42 K	1914500
306.45 K	1911200
306.48 K	1914800
306.5 K	1918100
306.53 K	1921200
306.56 K	1920200
306.59 K	1916400
306.62 K	1922000
306.64 K	1923600
306.67 K	1922600
306.7 K	1921800
306.73 K	1922000
306.76 K	1921100
306.78 K	1915500
306.81 K	1915900
306.84 K	1920400
306.87 K	1916900
306.9 K	1923600
306.93 K	1927300
306.95 K	1929700
306.98 K	1927500
307.01 K	1924100
307.04 K	1928000
307.06 K	1932100
307.09 K	1924600
307.12 K	1927400
307.15 K	1929100
307.18 K	1928200
307.21 K	1926400
307.23 K	1925500
307.26 K	1931000
307.29 K	1928800
307.32 K	1935200
307.35 K	1931700
307.37 K	1930400
307.4 K	1932600
307.43 K	1934400
307.46 K	1934700
307.49 K	1935300
307.51 K	1940700
307.54 K	1937500
307.57 K	1936300
307.6 K	1936200
307.63 K	1932400
307.66 K	1937300
307.68 K	1942100
307.71 K	1944000
307.74 K	1939900
307.77 K	1932400
307.8 K	1938300
307.82 K	1947000
307.85 K	1949300
307.88 K	1946700
307.91 K	1938400
307.94 K	1933900
307.96 K	1951300
307.99 K	1961700
308.02 K	1944900
308.05 K	1926900
308.08 K	1941200
308.11 K	1958000
308.13 K	1970100
308.16 K	1961600
308.19 K	1937100
308.22 K	1930400
308.25 K	1946700
308.27 K	1964400
308.3 K	1971900
308.33 K	1970700
308.36 K	1959500
308.39 K	1936500
308.42 K	1912300
308.44 K	1924300
308.47 K	1951900
308.5 K	2008600
308.53 K	2043600
308.56 K	2018100
308.58 K	1941300
308.61 K	1912700
308.64 K	1927600
308.67 K	1961900
308.7 K	1999600
308.72 K	2029400
308.75 K	2032700
308.78 K	1994600
308.81 K	1952000
308.84 K	1951000
308.87 K	1967200
308.89 K	1986400
308.92 K	2016500
308.95 K	2025600
308.98 K	1992600
309 K	1977300
309.03 K	1975500
309.06 K	1984100
309.09 K	2003300
309.12 K	2020100
309.15 K	2018700
309.17 K	2001300
309.2 K	1997100
309.23 K	1999200
309.26 K	2022000
309.29 K	2056100
309.31 K	2064600
309.34 K	2035200
309.37 K	2025000
309.4 K	2039600
309.43 K	2070400
309.45 K	2095200
309.48 K	2108700
309.51 K	2150900
309.54 K	2201100
309.57 K	1939300
309.6 K	1869500
309.62 K	1848200
309.65 K	1833800
309.68 K	1826700
309.71 K	1819300
309.74 K	1817500
309.76 K	1810200
309.79 K	1806800
309.82 K	1803600
309.85 K	1800700
309.88 K	1798700
309.9 K	1794300
309.93 K	1792100
309.96 K	1792800
309.99 K	1790300
310.02 K	1787500
310.05 K	1785800
310.07 K	1787100
310.1 K	1782100
310.13 K	1784300
310.16 K	1779800
310.19 K	1779800
310.21 K	1778600
310.24 K	1778600
310.27 K	1775500
310.3 K	1773400
310.33 K	1772700
310.35 K	1774100
310.38 K	1771100
310.41 K	1773500
310.44 K	1771400
310.47 K	1770500
310.5 K	1768500
310.52 K	1769800
310.55 K	1768900
310.58 K	1766300
310.61 K	1764600
310.64 K	1764400
310.66 K	1764600
310.69 K	1763300
310.72 K	1763400
310.75 K	1765000
310.78 K	1762800
310.8 K	1762200
310.83 K	1757300
310.86 K	1761100
310.89 K	1760100
310.92 K	1760700
310.94 K	1761100
310.97 K	1760600
311 K	1759800
311.03 K	1759800
311.06 K	1758100
311.09 K	1757600
311.11 K	1758300
311.14 K	1758800
311.17 K	1757800
311.2 K	1757900
311.23 K	1756900
311.25 K	1754900
311.28 K	1754400
